# Test results from US12187759B2, “TLR7 agonists” (Primmune Therapeutics, Inc., priority 2019, dated 2025).
# Columns and labels:
# human TLR7 = target: T1, human TLR7 (Homo sapiens, UniProt Q9NYK1); test: TLR7 reporter cell assay (HEK293 cells stably expressing human TLR7 with NF-κB-driven SEAP reporter); format: cell-based; details: 15-24 hours; for Emax at 500 µM: HEK293, 500 μM compound, SEAP activity (OD 650 nm) relative to 28.5 μM resiquimod, read-out: Response at 500 μM Compound as a Percent of Resiquimod Response; for EC50: fit of SEAP dose response, ymax from 28.5 μM resiquimod
# T1 construct: host or cells: HEK293
# T1 sequence (Q9NYK1 27-1049): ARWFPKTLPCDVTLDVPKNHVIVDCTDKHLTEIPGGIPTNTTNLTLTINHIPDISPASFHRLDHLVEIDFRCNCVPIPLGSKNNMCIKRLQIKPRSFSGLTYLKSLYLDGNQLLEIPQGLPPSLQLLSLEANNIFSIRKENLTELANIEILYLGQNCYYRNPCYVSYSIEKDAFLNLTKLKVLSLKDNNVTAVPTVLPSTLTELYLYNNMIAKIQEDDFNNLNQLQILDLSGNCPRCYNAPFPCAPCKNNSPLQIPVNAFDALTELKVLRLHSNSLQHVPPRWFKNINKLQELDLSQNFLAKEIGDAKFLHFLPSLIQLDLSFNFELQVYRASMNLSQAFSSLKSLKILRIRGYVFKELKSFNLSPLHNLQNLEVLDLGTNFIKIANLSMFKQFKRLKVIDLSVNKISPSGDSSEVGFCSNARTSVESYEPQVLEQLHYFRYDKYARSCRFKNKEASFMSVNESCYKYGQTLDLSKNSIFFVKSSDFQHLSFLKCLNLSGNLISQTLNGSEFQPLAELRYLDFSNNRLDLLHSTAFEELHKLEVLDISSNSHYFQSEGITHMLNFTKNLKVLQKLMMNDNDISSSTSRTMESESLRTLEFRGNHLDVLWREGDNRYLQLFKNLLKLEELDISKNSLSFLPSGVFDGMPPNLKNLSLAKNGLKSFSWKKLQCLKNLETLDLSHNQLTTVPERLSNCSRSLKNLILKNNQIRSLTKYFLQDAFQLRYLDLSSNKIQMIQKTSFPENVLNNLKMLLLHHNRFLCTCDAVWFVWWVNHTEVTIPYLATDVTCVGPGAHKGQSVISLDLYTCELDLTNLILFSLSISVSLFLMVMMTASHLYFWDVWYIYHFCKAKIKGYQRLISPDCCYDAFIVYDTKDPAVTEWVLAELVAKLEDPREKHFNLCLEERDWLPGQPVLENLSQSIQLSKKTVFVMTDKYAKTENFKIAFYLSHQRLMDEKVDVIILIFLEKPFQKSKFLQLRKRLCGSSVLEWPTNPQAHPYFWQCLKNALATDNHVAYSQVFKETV
# Summary of the method: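 HEK293 cells stably expressing human TLR7 with an NF-κB-driven SEAP reporter, treated with compound for 15-24 hours. SEAP read at OD 650 nm. EC50 fitted by nonlinear least squares, maximum set by 28.5 μM resiquimod.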
# [1] = tested on: hPBMCs (Human Peripheral Blood Mononuclear Cells); test: Induction of interferon-α in hPBMCs in vitro; format: cell-based; details: Homo sapiens, PBMC; for Emax: 24 h, peak IFNα2a as percentage of peak response of standard 2-Amino-7-(cyclopropylmethyl)-9-B-D-xylofuranosyl-7,9-dihydro-1H-purine-6,8-dione, averaged across donors, read-out: IFNrmax, Relative Maximal IFNα2a Production (%); for minimal effective concentration: minimal effective concentration for interferon-α production (generally at least 80 pg/ml above baseline), geometric mean across at least three donors, 24 hours, read-out: Weighted MEC
# Summary of the method: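 Peripheral blood mononuclear cells from healthy human donors were dispensed into replicate culture wells at 1.0-7.5×10^6 cells per well. They were exposed to test compound for 24 hours at 37° C. in humidified 5% CO2, with untreated wells as controls. Secreted interferon-α was quantified with a multisubtype ELISA or as IFNα2a in a luminex panel. MEC was defined as the lowest concentration giving a significant rise above baseline, generally at least 80 pg/ml. IFNmax was the highest IFN level seen at any tested concentration.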
Compound,Emax at 500 µM (human TLR7),Emax [1],minimal effective concentration [1],EC50 (human TLR7)
"C#CCn1c(=O)n([C@@H]2O[C@H](C(N)=O)C[C@H]2O)c2nc(N)[nH]c(=O)c21 [Compound 41, (2S,4R,5R)-5-(2-Amino-6,8-dioxo-7-(prop-2-yn-1-yl)-1,6,7,8-tetrahydro-9H-purin-9-yl)-4-hydroxytetrahydrofuran-2-carboxamide]",< 5%,≤ 10%,> 50 µM,
"C#CCn1c(=O)n([C@@H]2O[C@H](C(=O)NC)C[C@H]2O)c2nc(N)[nH]c(=O)c21 [Compound 42, (2S,4R,5R)-5-(2-Amino-6,8-dioxo-7-(prop-2-yn-1-yl)-1,6,7,8-tetrahydro-9H-purin-9-yl)-4-hydroxy-N-methyltetrahydrofuran-2-carboxamide]",< 5%,≤ 10%,> 50 µM,
"CC[C@H](O)[C@@H]1C[C@@H](O)[C@H](n2c(=O)n(CC(F)(F)F)c3c(=O)[nH]c(N)nc32)O1 [Compound 43, 2-Amino-9-((2R,3R,5S)-3-hydroxy-5-((S)-1-hydroxypropyl)tetrahydrofuran-2-yl)-7-(2,2,2-trifluoroethyl)-7,9-dihydro-1H-purine-6,8-dione]",97%,158%,2.5 µM,55 µM
"CC[C@H](O)[C@H]1O[C@@H](n2c(=O)n(CC(F)(F)F)c3c(=O)[nH]c(N)nc32)[C@H](O)[C@H]1F [Compound 44, 2-Amino-9-((2R,3S,4R,5R)-4-fluoro-3-hydroxy-5-((S)-1-hydroxypropyl)tetrahydrofuran-2-yl)-7-(2,2,2-trifluoroethyl)-7,9-dihydro-1H-purine-6,8-dione]",101%,250%,2 µM,86 µM
"C#CCn1c(=O)n([C@@H]2O[C@H]([C@@H](O)CSC)C[C@H]2O)c2nc(N)[nH]c(=O)c21 [Compound 45, 2-Amino-9-((2R,3R,5S)-3-hydroxy-5-((R)-1-hydroxy-2-(methylthio)ethyl)tetrahydrofuran-2-yl)-7-(prop-2-yn-1-yl)-7,9-dihydro-1H-purine-6,8-dione]",66%,321%,5 µM,185 µM
"CC[C@H](O)[C@H]1O[C@@H](n2c(=O)n(CCSC)c3c(=O)[nH]c(N)nc32)[C@H](O)[C@H]1F [Compound 46, 2-Amino-9-((2R,3S,4R,5R)-4-fluoro-3-hydroxy-5-((S)-1-hydroxypropyl)tetrahydrofuran-2-yl)-7-(2-(methylthio)ethyl)-7,9-dihydro-1H-purine-6,8-dione]",30%,317%,3.1 µM,> 500 µM
